Patent US20240391948A1, “NOVEL COMPOUND THAT INHIBITS TNF-ALPHA GENERATION AND INFLAMMASOME ACTIVITY AND PREPARATION METHOD THEREFOR” (SHAPERON INC., priority 2021, published 2024)

What was measured:
Assay type in all cases: cell-based
[1] = system: J774A.1 (Mouse BALB/c monocyte macrophage cell line) cells; assay: LPS-induced TNF-α secretion inhibition in J774A.1 cells; details: J774.A1, 1 μM compound, graded compared to taurodeoxycholic acid (positive control), read-out: TNF-α production inhibition grade
Summary of the method: (§1)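 Grades (A >100%, B 50–100%, C 20–50%, D <20%) express cytokine suppression by 1 μM compound relative to taurodeoxycholic acid. LPS-induced TNF-α and LPS+ATP-induced IL-1β secretion were measured in murine J774A.1 macrophage cells.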

[2] = system: J774A.1 (Mouse BALB/c monocyte macrophage cell line) cells; assay: LPS+ATP-induced IL-1β secretion inhibition in J774A.1 cells; details: J774.A1, 1 μM compound, graded compared to taurodeoxycholic acid (positive control), read-out: IL-1β production inhibition grade
Summary of the method: as §1

[3] = system: U937 cells (human monocytic cell line); assay: Pam2CSK4-induced TNF-α secretion inhibition in PMA-differentiated U937 cells; details: U-937, U937 cells differentiated with PMA, read-out: TNF-α production inhibition grade (IC50)
Summary of the method: (§2)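 Inhibition is given as IC50 (μM) in A-D bands, using distinct thresholds for TNF-α and for IL-1β. Secretion followed Pam2CSK4 stimulation (TNF-α) or BzATP stimulation (IL-1β) of compound-pretreated, PMA-differentiated U937 macrophages.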

[4] = system: U937 cells (human monocytic cell line); assay: BzATP-induced IL-1β secretion inhibition in PMA-differentiated U937 cells; details: U-937, U937 cells differentiated with PMA, read-out: IL-1β production inhibition grade (IC50)
Summary of the method: as §2

Row | SMILES | inhibition at 1 µM [1] | inhibition at 1 µM [2] | IC50 [3] | IC50 [4]
1 | C[C@H](CCC(=O)N1CCC[C@@H]1CS(=O)(=O)O)[C@H]1CC[C@H]2[C@@H]3CC[C@@H]4C[C@H](O)CC[C@]4(C)[C@H]3C[C@H](O)[C@]12C [NC10036] | < 20% | > 100% | ≥ 2000 nM | 100 to 200 nM
2 | CC[C@H]1[C@@H](O)[C@@H]2[C@H](CC[C@]3(C)[C@@H]([C@H](C)CCC(=O)N(CCN(C)C)CCS(=O)(=O)O)CC[C@@H]23)[C@@]2(C)CC[C@@H](O)C[C@@H]12 [NC40035] | < 20% | > 100% | < 500 nM | 50 to 100 nM
3 | CC[C@H]1[C@@H](O)[C@@H]2[C@H](CC[C@]3(C)[C@@H]([C@H](C)CCC(=O)N(CCS(=O)(=O)O)c4ccccc4)CC[C@@H]23)[C@@]2(C)CC[C@@H](O)C[C@@H]12 [NC40037] | < 20% | 20 to 50% | 500 to 1000 nM | 50 to 100 nM
4 | CC(C)C[C@@H](CS(=O)(=O)O)NC(=O)CC[C@@H](C)[C@H]1CC[C@H]2[C@@H]3[C@H](O)C[C@@H]4C[C@H](O)CC[C@]4(C)[C@H]3C[C@H](O)[C@]12C [NC20030] | < 20% | < 20% | < 500 nM | ≥ 200 nM
5 | CC(C)C[C@H](CS(=O)(=O)O)NC(=O)CC[C@@H](C)[C@H]1CC[C@H]2[C@@H]3[C@H](O)C[C@@H]4C[C@H](O)CC[C@]4(C)[C@H]3C[C@H](O)[C@]12C [NC20031] | < 20% | 50 to 100% | < 500 nM | 50 to 100 nM
6 | CC[C@H]1[C@@H](O)[C@@H]2[C@H](CC[C@]3(C)[C@@H]([C@H](C)CCC(=O)N4CC[C@H](S(=O)(=O)O)C4)CC[C@@H]23)[C@@]2(C)CC[C@@H](O)C[C@@H]12 [NC40033] | > 100% | > 100% | < 500 nM | < 50 nM
7 | C[C@H](CCC(=O)N[C@H]1CCCC[C@H]1S(=O)(=O)O)[C@H]1CC[C@H]2[C@@H]3CC[C@@H]4C[C@H](O)CC[C@]4(C)[C@H]3CC[C@]12C [NC10083] | > 100% | > 100% | 500 to 1000 nM | < 50 nM
8 | C[C@H](CCC(=O)NC1(CS(=O)(=O)O)CC1)[C@H]1CC[C@H]2[C@@H]3CC[C@@H]4C[C@H](O)CC[C@]4(C)[C@H]3C[C@H](O)[C@]12C [NC10047] | < 20% | 20 to 50% | 500 to 1000 nM | 100 to 200 nM
9 | CC[C@H]1[C@@H](O)[C@@H]2[C@H](CC[C@]3(C)[C@@H]([C@H](C)CCC(=O)NCCC(=O)O)CC[C@@H]23)[C@@]2(C)CC[C@@H](O)C[C@@H]12 [NC40002] | < 20% | 20 to 50% | ≥ 2000 nM | ≥ 200 nM
10 | C[C@H](CCC(=O)N[C@@H]1CCCC[C@@H]1S(=O)(=O)O)[C@H]1CC[C@H]2[C@@H]3CC[C@@H]4C[C@H](O)CC[C@]4(C)[C@H]3C[C@H](O)[C@]12C [NC10041] | < 20% | < 20% | 500 to 1000 nM | ≥ 200 nM
11 | CC(C)C[C@H](CS(=O)(=O)O)NC(=O)CC[C@@H](C)[C@H]1CC[C@H]2[C@@H]3CC[C@@H]4C[C@H](O)CC[C@]4(C)[C@H]3C[C@H](O)[C@]12C [NC10046] | < 20% | 50 to 100% | < 500 nM | 100 to 200 nM
12 | CC[C@H]1[C@@H](O)[C@@H]2[C@H](C[C@H](O)[C@]3(C)[C@@H]([C@H](C)CCC(=O)N[C@@H](C)CS(=O)(=O)O)CC[C@@H]23)[C@@]2(C)CC[C@@H](O)C[C@@H]12 [NC50028] | < 20% | 50 to 100% | 1000 to 2000 nM | ≥ 200 nM
13 | C[C@H](CCC(=O)NC[C@@H](C)S(=O)(=O)O)[C@H]1CC[C@H]2[C@@H]3[C@H](O)C[C@@H]4C[C@H](O)CC[C@]4(C)[C@H]3C[C@H](O)[C@]12C [NC20023] | < 20% | < 20% | ≥ 2000 nM | 50 to 100 nM
14 | CC[C@H]1[C@@H](O)[C@@H]2[C@H](C[C@H](O)[C@]3(C)[C@@H]([C@H](C)CCC(=O)N(C)CCS(=O)(=O)O)CC[C@@H]23)[C@@]2(C)CC[C@@H](O)C[C@@H]12 [NC50004] | < 20% | < 20% | ≥ 2000 nM | 100 to 200 nM
15 | C[C@H](CCC(=O)N[C@@H](C)CS(=O)(=O)O)[C@H]1CC[C@H]2[C@@H]3CC[C@@H]4C[C@H](O)CC[C@]4(C)[C@H]3CC[C@]12C [NC10084] | < 20% | < 20% | < 500 nM | ≥ 200 nM
